Assay results: US20130261077A1 (priority 2012, published 2013)

Target: T1, FimH-CRD (Escherichia coli, UniProt P08191)
T1 construct: The first 177 amino acids of the FimH protein; thrombin tag (printed as 'fusion protein with thrombin') (cleaved yes); made in house; host or cells: bacteria (pET21b plasmid)
Test: Competitive binding assay by fluorescence polarization, assay 2 (compounds prepared by robotics, plates frozen and thawed)
Procedure, shortened: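 Compounds at 0.4 nM–75 μM final (12 points, 3-fold steps, duplicate) compete with a 5 nM Alexa 647 mannoside probe for 60 nM FimH-CRD; 5 h room-temperature incubation in pH 7.0 Tris buffer with 2.5% DMSO, FP read-out, Kd from fitted curves. Assay 1 uses manual dilution, assay 2 robot-made frozen/thawed plates.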

T1 sequence (P08191 22-177): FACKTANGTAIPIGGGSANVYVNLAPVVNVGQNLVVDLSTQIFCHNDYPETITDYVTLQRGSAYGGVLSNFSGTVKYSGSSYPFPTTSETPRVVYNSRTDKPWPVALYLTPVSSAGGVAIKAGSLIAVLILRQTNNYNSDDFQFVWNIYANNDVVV

SMILES	Kd
COCCOCCNC(=O)Cc1nnc(-c2ccc(-c3cccc([C@H]4O[C@H](CO)[C@@H](O)[C@H](O)[C@@H]4O)c3)cc2)o1 [Compound 182, N-(2-(2-methoxyethoxy)ethyl)-2-(5-(3′-((2R,3S,4R,5S,6R)-3,4,5-trihydroxy-6-(hydroxymethyl)tetrahydro-2H-pyran-2-yl)-[1,1′-biphenyl]-4-yl)-1,3,4-oxadiazol-2-yl)acetamide]	20.2 ± 4.7 nM
Cc1nnc(-c2ccc(-c3cccc([C@H]4O[C@H](CO)[C@@H](O)[C@H](O)[C@@H]4O)c3)nc2)o1 [Compound 183, (2R,3S,4R,5S,6R)-2-(hydroxymethyl)-6-(3-(5-(5-methyl-1,3,4-oxadiazol-2-yl)pyridin-2-yl)phenyl)tetrahydro-2H-pyran-3,4,5-triol]	24.8 ± 8.3 nM
CC(=O)c1ccc(-c2cccc([C@H]3O[C@H](CO)[C@@H](O)[C@H](O)[C@@H]3O)c2)cc1 [Compound 184, 1-(3′-((2R,3S,4R,5S,6R)-3,4,5-trihydroxy-6-(hydroxymethyl)tetrahydro-2H-pyran-2-yl)-[1,1′-biphenyl]-4-yl)ethanone]	18.2 ± 8.4 nM
N#Cc1ccc(Oc2cccc([C@H]3O[C@H](CO)[C@@H](O)[C@H](O)[C@@H]3O)c2)cc1 [Compound 185, 4-[3-[(2R,3S,4R,5S,6R)-3,4,5-trihydroxy-6-(hydroxymethyl)tetrahydropyran-2-yl]phenoxy]benzonitrile]	11.7 ± 7.5 nM
CC(=O)c1ccc(Oc2cccc([C@H]3O[C@H](CO)[C@@H](O)[C@H](O)[C@@H]3O)c2)cc1 [Compound 186, 1-[4-[3-[(2R,3S,4R,5S,6R)-3,4,5-trihydroxy-6-(hydroxymethyl)tetrahydropyran-2-yl]phenoxy]phenyl]ethanone]	12.3 ± 8.9 nM
CNC(=O)c1ccc(Oc2cc([C@H]3O[C@H](CO)[C@@H](O)[C@H](O)[C@@H]3O)ccc2OC)cc1 [Compound 187, 4-[2-methoxy-5-[(2R,3S,4R,5S,6R)-3,4,5-trihydroxy-6-(hydroxymethyl)tetrahydropyran-2-yl]phenoxy]-N-methyl-benzamide]	9.9 ± 1.9 nM
CNC(=O)c1cccc(Oc2cc([C@H]3O[C@H](CO)[C@@H](O)[C@H](O)[C@@H]3O)ccc2OC)c1 [Compound 188, 3-[2-methoxy-5-[(2R,3S,4R,5S,6R)-3,4,5-trihydroxy-6-(hydroxymethyl)tetrahydropyran-2-yl]phenoxy]-N-methyl-benzamide]	11.1 ± 1.1 nM
COC(=O)c1ccc(Oc2cc([C@H]3O[C@H](CO)[C@@H](O)[C@H](O)[C@@H]3O)ccc2OC)cc1 [Compound 189, Methyl-4-[2-methoxy-5-[(2R,3S,4R,5S,6R)-3,4,5-trihydroxy-6-(hydroxymethyl)tetrahydropyran-2-yl]phenoxy]benzoate]	8.1 ± 2.7 nM
OC[C@H]1O[C@H](c2cccc(O)c2F)[C@@H](O)[C@@H](O)[C@@H]1O [Compound 190, (2R,3S,4R,5S,6R)-2-(2-fluoro-3-hydroxy-phenyl)-6-(hydroxymethyl)tetrahydropyran-3,4,5-triol]	24.1 ± 15.3 nM
OC[C@H]1O[C@H](c2cc(O)ccc2OC(F)(F)F)[C@@H](O)[C@@H](O)[C@@H]1O [Compound 191, (2R,3S,4R,5S,6R)-2-(hydroxymethyl)-6-[5-hydroxy-2-(trifluoromethoxy)phenyl]tetrahydropyran-3,4,5-triol]	37.4 ± 17.2 nM
OC[C@H]1O[C@H](c2cc(O)ccc2F)[C@@H](O)[C@@H](O)[C@@H]1O [Compound 192, (2R,3S,4R,5S,6R)-2-(2-fluoro-5-hydroxy-phenyl)-6-(hydroxymethyl)tetrahydropyran-3,4,5-triol]	56.5 ± 9.1 nM
OC[C@H]1O[C@H](c2ccc(F)c(O)c2)[C@@H](O)[C@@H](O)[C@@H]1O [Compound 193, (2R,3S,4R,5S,6R)-2-(4-fluoro-3-hydroxy-phenyl)-6-(hydroxymethyl)tetrahydropyran-3,4,5-triol]	30.6 ± 1.1 nM
Cc1cc(O)cc([C@H]2O[C@H](CO)[C@@H](O)[C@H](O)[C@@H]2O)c1 [Compound 194, (2R,3S,4R,5S,6R)-2-(hydroxymethyl)-6-(3-hydroxy-5-methyl-phenyl)tetrahydropyran-3,4,5-triol]	31 ± 29.4 nM
CNC(=O)c1ccc(Oc2ccc(OC(F)(F)F)c([C@H]3O[C@H](CO)[C@@H](O)[C@H](O)[C@@H]3O)c2)cc1 [Compound 195, N-methyl-4-[4-(trifluoromethoxy)-3-[(2R,3S,4R,5S,6R)-3,4,5-trihydroxy-6-(hydroxymethyl)tetrahydropyran-2-yl]phenoxy]benzamide]	178 ± 60.9 nM
CNC(=O)c1ccc(Oc2cc([C@H]3O[C@H](CO)[C@@H](O)[C@H](O)[C@@H]3O)ccc2F)cc1 [Compound 197, 4-[2-fluoro-5-[(2R,3S,4R,5S,6R)-3,4,5-trihydroxy-6-(hydroxymethyl)tetrahydropyran-2-yl]phenoxy]-N-methyl-benzamide]	11.7 ± 2.8 nM
CNC(=O)c1ccc(Oc2cccc([C@H]3O[C@H](CO)[C@@H](O)[C@H](O)[C@@H]3O)c2F)cc1 [Compound 198, 4-[2-fluoro-3-[(2R,3S,4R,5S,6R)-3,4,5-trihydroxy-6-(hydroxymethyl)tetrahydropyran-2-yl]phenoxy]-N-methyl-benzamide]	10.8 ± 5.2 nM
CNC(=O)c1ccc(Oc2cc(C)cc([C@H]3O[C@H](CO)[C@@H](O)[C@H](O)[C@@H]3O)c2)cc1 [Compound 199, N-methyl-4-[3-methyl-5-[(2R,3S,4R,5S,6R)-3,4,5-trihydroxy-6-(hydroxymethyl)tetrahydropyran-2-yl]phenoxy]benzamide]	8.3 ± 2.2 nM
CNC(=O)c1cccc(Oc2cccc([C@H]3O[C@H](CO)[C@@H](O)[C@H](O)[C@@H]3O)c2F)c1 [Compound 200, 3-[2-fluoro-3-[(2R,3S,4R,5S,6R)-3,4,5-trihydroxy-6-(hydroxymethyl)tetrahydropyran-2-yl]phenoxy]-N-methyl-benzamide]	8.4 ± 0.8 nM
CNC(=O)c1cccc(Oc2ccc(OC(F)(F)F)c([C@H]3O[C@H](CO)[C@@H](O)[C@H](O)[C@@H]3O)c2)c1 [Compound 201, N-methyl-3-[4-(trifluoromethoxy)-3-[(2R,3S,4R,5S,6R)-3,4,5-trihydroxy-6-(hydroxymethyl)tetrahydropyran-2-yl]phenoxy]benzamide]	103 ± 1.8 nM
CNC(=O)c1cccc(Oc2ccc(F)c([C@H]3O[C@H](CO)[C@@H](O)[C@H](O)[C@@H]3O)c2)c1 [Compound 202, 3-[4-fluoro-3-[(2R,3S,4R,5S,6R)-3,4,5-trihydroxy-6-(hydroxymethyl)tetrahydropyran-2-yl]phenoxy]-N-methyl-benzamide]	19.2 ± 3.8 nM
CNC(=O)c1cccc(Oc2cc([C@H]3O[C@H](CO)[C@@H](O)[C@H](O)[C@@H]3O)ccc2F)c1 [Compound 203, 3-[2-fluoro-5-[(2R,3S,4R,5S,6R)-3,4,5-trihydroxy-6-(hydroxymethyl)tetrahydropyran-2-yl]phenoxy]-N-methyl-benzamide]	9.2 ± 1.2 nM
CNC(=O)c1cccc(Oc2cc(C)cc([C@H]3O[C@H](CO)[C@@H](O)[C@H](O)[C@@H]3O)c2)c1 [Compound 204, N-methyl-3-[3-methyl-5-[(2R,3S,4R,5S,6R)-3,4,5-trihydroxy-6-(hydroxymethyl)tetrahydropyran-2-yl]phenoxy]benzamide]	10.6 ± 0.9 nM
OC[C@H]1O[C@H](c2ccc(Oc3ccccc3)cc2)[C@@H](O)[C@@H](O)[C@@H]1O [Compound 205, (2R,3S,4R,5S,6R)-2-(hydroxymethyl)-6-(4-phenoxyphenyl)tetrahydropyran-3,4,5-triol]	38.7 ± 16.2 nM
